Measurements: patent US10548940B2, “Pharmaceutical composition for controlling blood lipids and body weight, and use thereof” (BEIJING HEBABIZ MANAGEMENT CO., LTD, priority 2014, dated 2020)

What was measured:
[1] = system: hyperlipidemia rats; assay: Effect of drugs on reducing blood lipid and body weight in high fat diet rats (Examples 5); type: in vivo, Wistar rats
Protocol: Take the medicine ZL004, ZL005 and ZL006, 0.5% CMC-Na (carboxymethyl cellulose sodium) solution (25 mg/ml or 50 mg/ml); take atorvastatin as positive control drug (0.5% CMC-Na solution, 0.5 mg/ml), for the following experiment.
120 Wistar rats (male weight; 150 g; feeding environment: SPF grade animal room, free feeding, 12 h light/12 h dark) after adaptive breeding for one week, were randomly divided into normal control group (10 rats) and high-fat diet group (110 rats), and each rat was then numbered. The normal control group were fed with normal diet, high fat diet group were fed with high fat diet (78.8% basal diet (purchased from Beijing, Australia to feed Co. Ltd.) +1% cholesterol, +10% egg yolk powder, +10% lard, +0.2% sodium cholate), 30 days later, after determination, the hyperlipemia rats of high fat diet group were randomly divided into 10 groups (high fat model group, atorvastatin group (atorvastatin 5 mg/kg daily administration), ZL004 high dose group (daily administration of ZL004 500 mg/kg), ZL004 low dose group (daily administration of ZL004 […]), ZL005 high dose group (daily administration of ZL005 500 mg/kg), ZL005 low dose group (daily administration of ZL005 […]), ZL006 high dose group (daily administration of ZL006 500 mg/kg), ZL006 low dose group (daily administration of ZL006 […]), 10 rats in each group. The normal control group and high fat model group daily orally administered 0.5% CMC-Na solution, drug admonition group were orally administered with corresponding drugs administered continuously for 30 days to determine the levels of total cholesterol (TC), triacylglycerol (TG), high density lipoprotein cholesterol (HDL-C), low density lipoprotein cholesterol (LDL-C) and weight. No safety problems were found in the experiment.

[2] = system: hyperlipidemia rats; assay: Further study on the effect of drugs on lowering blood fat and body weight in high fat diet rats, lower doses (Examples 6); type: in vivo, Wistar rats
Protocol: Take ZL004, ZL051 and ZL006 (0.5% CMC-Na solution, 7.5 mg/ml, 15 mg/ml, or 30 mg/ml), take atorvastatin as positive control drug (0.5% CMC-Na solution, 0.5 mg/ml), for the following experiment.
130 Wistar rats (male weight; 150 g; feeding environment: SPF grade animal room, free feeding, 12 h light/12 h dark) after adaptive breeding for one week, were randomly divided into normal control group (10 rats) and high-fat diet group (120 rats), and each rat was then numbered. The normal control group were fed with normal diet, high fat diet group were fed with high fat diet (78.8% basal diet (purchased from Beijing, Australia to feed Co. Ltd.)+1% cholesterol, +10% egg yolk powder, +10% lard, +0.2% sodium cholate), After 30 days, after determination, the hyperlipemia rats of high fat diet group were randomly divided into 10 groups (high fat model group, atorvastatin group (atorvastatin 5 mg/kg daily administration), ZL004 high dose group (daily administration of ZL004 300 mg/kg), ZL004 middle dose group (daily administration of ZL004 150 mg/kg), ZL004 low dose group (daily administration of ZL004 75 mg/kg), ZL051 high dose group (daily administration of ZL051 300 mg/kg), ZL051 middle dose group (daily administration of ZL051 150 mg/kg), ZL051 low dose group (daily administration of ZL051 75 mg/kg), ZL006 high dose group (daily administration of ZL006 300 mg/kg), ZL006 middle dose group (daily administration of ZL006 150 mg/kg), ZL006 low dose group (daily administration of ZL006 75 mg/kg), 10 rats in each group. The normal control group and high fat model group daily orally administered 0.5% CMC-Na solution, drug admonition group were orally administered with corresponding drugs administered continuously for 30 days to determine the levels of total cholesterol (TC), triacylglycerol (TG), high density lipoprotein cholesterol (HDL-C), low density lipoprotein cholesterol (LDL-C) and weight. No safety problems found in the experiment.

[3] = each dose (250 and 500 mg/kg), atorvastatin 5 mg/kg, oral daily 30 days, versus model group
[4] = high fat diet hyperlipidemia rats, oral daily for 30 days, 5 mg/kg, model group = 100%
[5] = high fat diet hyperlipidemia rats, oral daily for 30 days, 5 mg/kg, x ± s, n = 10
[6] = serum HDL cholesterol, high fat rats, oral daily 30 days, 5 mg/kg, model group = 100%, x ± s, n = 10
[7] = serum LDL cholesterol, high fat rats, oral daily 30 days, 5 mg/kg, model group = 100%, x ± s, n = 10
[8] = serum total cholesterol, high fat rats, oral daily 30 days, 5 mg/kg, model group = 100%, x ± s, n = 10
[9] = serum triacylglycerol, high fat rats, oral daily 30 days, 5 mg/kg, model group = 100%, x ± s, n = 10

CC(C)c1c(C(=O)Nc2ccccc2)c(-c2ccccc2)c(-c2ccc(F)cc2)n1CC[C@@H](O)C[C@@H](O)CC(=O)O [Atorvastatin, atorvastatin]
effect on the body weight of hyperlipidemia rats (in words) ([1]; each dose (250 and 500 mg/kg), atorvastatin 5 mg/kg, oral daily 30 days, versus high fat model group): reduced the body weight, close to or even lower than the normal control group
effect on HDL-C (in words) [1, 3]: significantly increase
effect on rat serum TC, TG, LDL-C (in words) [1, 3]: significantly reduce
body weight % (/high fat model group) [1, 4]: 90.77 ± 9.22%
body weight [1, 5]: 520.1 ± 52.8 g
HDL-C % (/model group) [1, 6]: 178.57 ± 57.92 %
LDL-C % (/model group) [1, 7]: 33.13 ± 11.62 %
TC % (/model group) [1, 8]: 81.77 ± 14.65 %
TG % (/model group) [1, 9]: 70.50 ± 23.19 %
effect on the body weight of hyperlipidemia rats (in words) ([2]; each dose (75, 150, 300 mg/kg), atorvastatin 5 mg/kg, oral daily 30 days, versus high fat model group): reduced the body weight, close to or even lower than the normal control group
effect on HDL-C (in words) ([2]; each dose (75, 150, 300 mg/kg), atorvastatin 5 mg/kg, oral daily 30 days, versus model group): significantly increase
body weight % (/high fat model group) [2, 4]: 90.37 ± 12.13%
body weight [2, 5]: 465.7 ± 62.5 g
effect on rat serum TC, TG, LDL-C (in words) ([2]; middle/high doses (150, 300 mg/kg), atorvastatin 5 mg/kg, oral daily 30 days, versus model group): significantly reduce
HDL-C % (/model group) [2, 6]: 176.99 ± 37.57 %
LDL-C % (/model group) [2, 7]: 67.93 ± 29.54 %
TC % (/model group) [2, 8]: 77.03 ± 23.18 %
TG % (/model group) [2, 9]: 69.99 ± 17.21 %
